Data set [1] concerns the target T1, cAMP receptor protein (CRP) (Escherichia coli, UniProt P0ACJ8).
T1 construct: inferred from pET21a(+) and Ni-NTA/imidazole purification); made in house; host or cells: E. coli BL21 (DE3), pET21a(+)
It is filed as binding. The conditions noted are these: CRP 2 µM, 25 °C, 50 mM MOPS pH 7.5, excitation 280 nm, ΔF(area) 334-348 nm; read-out: KD for nucleotide ligands on CRP. The protocol:
Figure 1 Binding of ppGpp to CRP determined by fluorescence spectroscopy. (a) The fluorescence Spectra of CRP in the presence of ppGpp. Following excitation at 280 nm, the emission spectra of CRP (2 µM) were recorded at 25 °C. (b) The fluorescence change (ΔF(area)) against ppGpp concentrations. Instead of using the fluorescence change at a fixed wavelength, the area below the spectra between 334 and 348 nm was used, and the area decrease (ΔF(area)) upon addition of ppGpp was utilized to calculate the extent of fluorescence quenching.
(§1) Fluorescence intensities were measured at 25 °C using a F-4500 Fluorescence Spectrophotometer (Hitachi corporation). H-NS and CRP in 50 mM MOPS buffer, pH 7.5 were excited at 280 nm and the emission spectra were recorded from 290 to 400 nm under various ligand concentrations. The dissociation constant, KD, was calculated using the equation, ΔF/ΔFM = (([L] + [P] + KD) − (([L] + [P] + KD)^2 − 4·[L]·[P])^0.5)/2·[P], where ΔF, ΔFM, [P], and [L] represent fluorescence change, the maximal fluorescence change, total protein concentration, and total ligand concentration, respectively. The area below the spectra in the 15 nm ranges was used to calculate ΔF in this study. The corrections for the inner filter effect, introduced by the ligands, was performed using the formula, Fcor = F × 10^(P + ΔA)/2, where F and Fcor denote fluorescence intensity before and after the correction, whereas P and ΔA indicate the initial sample absorption at the excitation wavelength and the change in absorption introduced by ligands, respectively.

For data set [2], the target named is T2, histone-like nucleoid structuring protein (H-NS) (Escherichia coli, UniProt P0ACF8).
T2 construct: inferred from Ni-NTA/imidazole purification; made in house; host or cells: E. coli BL21 (DE3); over-expressing strain obtained from Dr. Hyon E. Choy, originally from Dr. Bremer's laboratory
Description: biochemical. In kind it is binding. On the procedure: Figure 3 Determination of the dissociation constant KD for ppGpp on H-NS by fluorescence spectrometry. (a) The emission spectra of H-NS in the presence of ppGpp. While H-NS (10µM) was excited at 280 nm, the emission spectra in the presence of various concentrations of ppGpp were recorded at 25 °C. (b) The difference in fluorescence (ΔF(area)) between 322 and 336 nm against ppGpp concentrations.
as §1

Data set [3] deals with the molecule itself. Description: SEC; size exclusion chromatography of isolated CRP, single peak; data not shown.
Where [4] appears, read: H-NS 10 µM, 25 °C, 50 mM MOPS pH 7.5, excitation 280 nm, ΔF(area) 322-336 nm, read-out: KD for nucleotide ligands on H-NS.

“Also recorded” adds a separate entry of the source. Read-outs that look alike come from different tables or passages of the source.

T2 sequence (P0ACF8 whole entry): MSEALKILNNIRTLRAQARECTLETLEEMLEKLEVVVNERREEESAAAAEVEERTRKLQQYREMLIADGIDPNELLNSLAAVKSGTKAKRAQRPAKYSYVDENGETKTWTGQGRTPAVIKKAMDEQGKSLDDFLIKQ

What is called Kd is the constant that tells how readily two partners part at equilibrium. For `Nc1nc2c(ncn2[C@@H]2O[C@H](COP(=O)(O)OP(=O)(O)OP(=O)(O)O)[C@@H](O)[C@H]2O)c(=O)[nH]1` [GTP], the Kd in data set [1] stood at 35 ± 3 µM; in data set [2] (setting [4]), 120 ± 25 µM.

Regarding `Nc1nc2c(ncn2[C@@H]2O[C@@H]3COP(=O)(O)O[C@H]3[C@H]2O)c(=O)[nH]1` [cGMP], the Kd in data set [1] is 17 ± 1 µM.

Consider `Nc1ncnc2c1ncn2[C@@H]1O[C@H](COP(=O)(O)OP(=O)(O)OP(=O)(O)O)[C@@H](O)[C@H]1O` [ATP], for which, in data set [1], the Kd is 33 ± 4 µM. The “KD for nucleotide ligands on H-NS” value in data set [2] (H-NS 10 µM, 25 °C, 50 mM MOPS pH 7.5, excitation 280 nm, ΔF(area) 322-336 nm) is recorded as “does not show a saturation curve; also recorded: did not show a saturation curve”.

In data set [2], `Nc1ncnc2c1ncn2[C@@H]1O[C@@H]2COP(=O)(O)O[C@H]2[C@H]1O` [cAMP] yielded a Kd of 270 ± 40 µM.

As to `Nc1nc2c(ncn2[C@@H]2O[C@H](COP(=O)(O)OP(=O)(O)O)[C@@H](O)[C@H]2O)c(=O)[nH]1` [GDP], the Kd came out at 62 ± 4 µM in data set [1] and 72 ± 6 µM in data set [2] (setting [4]).

B1: cyclic AMP receptor protein (CRP) from Escherichia coli (natural protein, E. coli K12 MG1655)
chain: MVLGKPQTDPTLEWFLSHCHIHKYPSKSTLIHQGEKAETLYYIVKGSVAVLIKDEEGKEMILSYLNQGDFIGELGLFEEGQERSAWVRAKTACEVAEISYKKFRQLIQVNPDILMRLSAQMARRLQVTSEKVGNLAFLDVTGRIAQTLLNLAKQPDAMTHPDGMQIKITRQEIGQIVGCSRETVGRILKMLEDQNLISAHGKTIVVYGTR
notes: cAMP receptor protein (CRP) of E. coli K12 MG1655; the gene was amplified by PCR from genomic DNA and cloned into pET21a(+) with NdeI and XhoI; About 24 kDa on SDS-PAGE; it is inferred from the vector and the Ni-NTA column; also called CAP; source: E. coli BL21 (DE3), pET21a(+), purified (Ni-NTA, desalting column)
By stoichiometry N is commonly meant the number of molecules, sites or subunits per partner or assembly. For B1, the “stoichiometry N” value in data set [3] amounted to 2.

The values above are taken from article PMC8346002 (International Journal of Molecular Sciences, 2021).
